From the supplement of paper PMC11451515

Test system: NOMO1
Test: cell viability relative to DMSO control; higher = less cytotoxic
Conditions: 48 h
Summary of the method: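 Cells were incubated for 48 h at 37°C before CellTiter-Glo One luminescence was read. The cells were NOMO1 or SEM (500 cells/well) or P12-Ichikawa (1000 cells/well) leukemia cells, adapted for at least four passages in each medium and seeded in 1536-well plates (5 μl). Dosing used library compounds in DMSO applied by pin over 11 threefold points, 47 μM to 0.79 nM. Viability is the per-plate percentage of DMSO wells, with cell-free wells as background.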

[1] = HPLM + 10% dialyzed FBS, 0.000781 µM
[2] = HPLM + 10% dialyzed FBS, 0.00234 µM
[3] = HPLM + 10% dialyzed FBS, 0.00702 µM
[4] = HPLM + 10% dialyzed FBS, 0.0211 µM
[5] = HPLM + 10% dialyzed FBS, 0.0632 µM
[6] = HPLM + 10% dialyzed FBS, 0.19 µM
[7] = HPLM + 10% dialyzed FBS, 0.569 µM
[8] = HPLM + 10% dialyzed FBS, 1.71 µM
[9] = HPLM + 10% dialyzed FBS, 5.12 µM
[10] = HPLM + 10% dialyzed FBS, 15.4 µM
[11] = HPLM + 10% dialyzed FBS, 46.1 µM
[12] = RPMI 5 mM glucose + 10% FBS, 0.000781 µM
[13] = RPMI 5 mM glucose + 10% FBS, 0.00234 µM
[14] = RPMI 5 mM glucose + 10% FBS, 0.00702 µM
[15] = RPMI 5 mM glucose + 10% FBS, 0.0211 µM
[16] = RPMI 5 mM glucose + 10% FBS, 0.0632 µM
[17] = RPMI 5 mM glucose + 10% FBS, 0.19 µM
[18] = RPMI 5 mM glucose + 10% FBS, 0.569 µM
[19] = RPMI 5 mM glucose + 10% FBS, 1.71 µM
[20] = RPMI 5 mM glucose + 10% FBS, 5.12 µM
[21] = RPMI 5 mM glucose + 10% FBS, 15.4 µM
[22] = RPMI 5 mM glucose + 10% FBS, 46.1 µM
[23] = RPMI 5 mM glucose + 10% dialyzed FBS, 0.000781 µM
[24] = RPMI 5 mM glucose + 10% dialyzed FBS, 0.00234 µM
[25] = RPMI 5 mM glucose + 10% dialyzed FBS, 0.00702 µM
[26] = RPMI 5 mM glucose + 10% dialyzed FBS, 0.0211 µM
[27] = RPMI 5 mM glucose + 10% dialyzed FBS, 0.0632 µM
[28] = RPMI 5 mM glucose + 10% dialyzed FBS, 0.19 µM
[29] = RPMI 5 mM glucose + 10% dialyzed FBS, 0.569 µM
[30] = RPMI 5 mM glucose + 10% dialyzed FBS, 1.71 µM
[31] = RPMI 5 mM glucose + 10% dialyzed FBS, 5.12 µM
[32] = RPMI 5 mM glucose + 10% dialyzed FBS, 15.4 µM
[33] = RPMI 5 mM glucose + 10% dialyzed FBS, 46.1 µM

SMILES	cell viability [1] [%]	cell viability [2] [%]	cell viability [3] [%]	cell viability [4] [%]	cell viability [5] [%]	cell viability [6] [%]	cell viability [7] [%]	cell viability [8] [%]	cell viability [9] [%]	cell viability [10] [%]	cell viability [11] [%]	cell viability [12] [%]	cell viability [13] [%]	cell viability [14] [%]	cell viability [15] [%]	cell viability [16] [%]	cell viability [17] [%]	cell viability [18] [%]	cell viability [19] [%]	cell viability [20] [%]	cell viability [21] [%]	cell viability [22] [%]	cell viability [23] [%]	cell viability [24] [%]	cell viability [25] [%]	cell viability [26] [%]	cell viability [27] [%]	cell viability [28] [%]	cell viability [29] [%]	cell viability [30] [%]	cell viability [31] [%]	cell viability [32] [%]	cell viability [33] [%]
OC[C@H]1O[C@H](C[C@@H]1O)N2\C=C(F)/C(=O)NC2=O	115	120	120	70.9	51.9	46.8	52.1	50.4	35.5	27.8	17.9	121	118	114	118	120	89.9	82.6	72.7	44.1	39.1	30.2	140	119	106	79.2	63.9	46.4	47	34.4	24.6	27.6	20.1
N#Cc1ccc(Oc2ccc3c(c2)COB3O)cc1	–	–	–	–	–	–	–	–	–	–	–	122	132	119	120	150	137	144	126	133	129	57.3	–	–	–	–	–	–	–	–	–	–	–
CC(=O)OC[C@H]1O[C@@H]([S-])[C@H](OC(C)=O)[C@@H](OC(C)=O)[C@@H]1OC(C)=O.CCP(CC)CC.[Au+]	80.7	84.3	96.5	92	75.9	93.7	96.7	93.8	31.5	7.92	5.33	86.7	99.2	85.4	96.4	98.4	104	106	89.8	18.8	6.15	5	88.3	96.7	90.5	96.2	91.7	94.5	95.4	88.7	40.8	5.52	4.43
COc1cccc2c1C(=O)c1c(O)c3c(c(O)c1C2=O)C[C@@](O)(C(=O)CO)C[C@@H]3O[C@H]1C[C@H](N)[C@H](O[C@H]2CCCCO2)[C@H](C)O1	124	106	100	135	117	116	117	108	43	113	63	120	128	122	128	114	128	123	125	22.9	124	101	119	116	121	115	104	124	106	123	41.7	110	102
CC(C)=CCC/C(C)=C/CC/C(C)=C/CC/C(C)=C/CC/C(C)=C/CC/C(C)=C/CC/C(C)=C/CC/C(C)=C/CC/C(C)=C/CO	117	123	105	92.7	107	114	112	117	100	96.6	102	95.7	96.3	108	100	101	105	115	104	92.6	92.8	88.3	92.2	91	111	93.6	103	113	94.4	95.6	91.6	87.7	86.9
N#C/C(=C\c1ccc(O)c(O)c1)C(=O)NCc1ccccc1	103	111	124	110	98.6	118	122	98.5	91.7	92.8	64.7	100	93.2	84.5	93.3	106	92.1	86.7	91.3	96.5	97.6	89	98	103	110	105	102	110	99.3	108	89.7	95.4	83.8
C[N]1C=C(C2=CC=CC=C12)\C3=C(\C(=O)NC3=O)C4=C[N](C5CCN(CC5)CC6=NC=CC=C6)C7=C4C=CC=C7	115	115	110	116	133	116	133	131	129	120	140	100	118	110	107	113	110	109	101	105	129	120	102	113	110	113	119	116	118	116	134	138	113
Cc1ccc(C(=O)Nc2cccc(C(F)(F)F)c2)cc1-c1ccc2nc(NCCN3CCOCC3)ncc2c1	128	122	111	118	118	126	117	108	50.7	29.5	10.8	115	106	125	113	123	114	116	103	57.3	32.7	10.3	129	116	115	124	118	113	114	102	54.2	33.4	11.6
N[C@H]2CN(CC12CC1)c3c(F)cc4c(c3Cl)[N@@](C=C(C4=O)C(=O)O)C5C[C@H]5F (some centres undefined)	98.5	110	98.1	102	98.2	89.5	83.2	84	94	50.4	92.1	83.7	92	89.1	78.6	90.2	83.5	72.1	82	75.2	48.4	97.1	76.7	91	91.2	94.9	98.1	86.5	81.9	91.3	89.8	69	77
O=C1CCC[C@@H]2[C@H]3CCCN4CCC[C@@H](CN12)[C@@H]34	59.1	68.9	78.1	87.1	87.2	94.8	38.3	93.2	26.6	25.3	13.6	79	92.2	84.6	86.8	85.2	90.9	55.3	85.2	17.2	13.9	7.48	66.1	79.6	90.2	82.9	86	93.6	69.3	77.8	19.1	18.6	10.8
C=C1C(=O)[C@@]23C(CC[C@@H]1[C@H]2O)[C@@]12CO[C@]3(O)[C@@H](O)[C@@H]1C(C)(C)CC[C@@H]2O (some centres undefined)	119	125	124	127	121	117	125	147	111	82	10.6	118	122	115	111	135	130	133	137	129	98.4	8.83	120	123	127	122	121	127	143	138	124	114	14
COc1cc2ncn(-c3cc(OCc4ccccc4[S+](C)(=O)[O-])c(C#N)s3)c2cc1OC	101	91	105	101	84	108	92.8	95.8	82.7	81.2	68.9	90.9	89.9	97	84.6	99.7	97	103	88.8	82.1	90.4	73.8	107	98.6	100	100	90.8	98.7	95.3	101	89.4	94.8	62
